This note sets out measurements from ChEMBL document CHEMBL1138532, “Global challenge of multidrug-resistant Acinetobacter baumannii” (Antimicrob Agents Chemother, 2007).

Data set [1] concerns Acinetobacter baumannii. The data set can be described thus: Antimicrobial activity against Acinetobacter baumannii isolate producing OXA-23 beta-lactamase by agar dilution method. The class given is functional. For orientation: In agar dilution the substance is mixed into plates at graded concentrations.
Data set [2] deals with Acinetobacter baumannii. Description: Antimicrobial activity against Acinetobacter baumannii isolate producing IMP-4 beta-lactamase by agar dilution method. The class given is functional.
Data set [3] relates to Acinetobacter baumannii. The data set can be described thus: Antimicrobial activity against Acinetobacter baumannii isolate producing metallo beta-lactamase by agar dilution method. The class given is functional.
Data set [4] relates to Acinetobacter baumannii. The data set can be described thus: Antimicrobial activity against drug-resistant Acinetobacter baumannii producing PER1 beta-lactamase. The class given is functional.
The species named for data set [5] is Homo sapiens. Description: […] in carbapenem-resistant Acinetobacter baumannii infected human assessed as incidence of acute renal failure. The class given is toxicity, organism-based. The conditions noted are these: in vivo.
The test system of data set [6] is Acinetobacter baumannii. Description: Antimicrobial activity against Acinetobacter baumannii isolates by E-test. The class given is functional, organism-based.
Data set [7] deals with Acinetobacter baumannii. The data set can be described thus: Antimicrobial activity against carbapenem-resistant Acinetobacter baumannii expressing ISAba1. In kind it is functional.
In data set [8] the test system is Acinetobacter baumannii. The data set can be described thus: Antimicrobial activity against carbapenem-resistant Acinetobacter baumannii expressing ISAba3. The class given is functional.

Values after ≈ are worked out from the molar mass of the structure shown.

In data set [1], `C[C@@H](O)[C@H]1C(=O)N2C(C(=O)O)=C(S[C@@H]3CN[C@H](CNS(N)(=O)=O)C3)[C@H](C)[C@H]12` [DORIPENEM] returned an MIC not above 4 µg/mL, an MIC50 of 0.5 µg/mL (≈ 1.19 µM) and an MIC90 of 16 µg/mL (≈ 38 µM). In data set [2], the MIC is not above 4 µg/mL, the MIC50 amounted to 0.5 µg/mL (≈ 1.19 µM) and the MIC90 amounted to 16 µg/mL (≈ 38 µM). In data set [3], this compound yielded a minimal inhibitory concentration (MIC) not above 4 µg/mL, an MIC50 of 0.5 µg/mL (≈ 1.19 µM) and an MIC90 of 16 µg/mL (≈ 38 µM).
Compound `CC(C)(O/N=C(\C(=O)N[C@@H]1C(=O)N2C(C(=O)[O-])=C(C[n+]3ccccc3)CS[C@H]12)c1csc(N)n1)C(=O)O` [CEFTAZIDIME] yielded an MIC in data set [4] of 256 µg/mL (≈ 468 µM).
On to COLISTIN [listing 1 of 2 here], for which the Activity in data set [5] is reported as 14%.
COLISTIN [listing 2 of 2 here]: in data set [6], the MIC is 1 µg/mL.
Consider `C[C@@H](O)[C@H]1C(=O)N2C(C(=O)O)=C(SCCNC=N)C[C@H]12` [IMIPENEM ANHYDROUS], for which the minimal inhibitory concentration (MIC) in data set [7] and in data set [8] was not below 32 µg/mL throughout.
In turn, `CO/N=C(\C(=O)N[C@@H]1C(=O)N2C(C(=O)[O-])=C(C[N+]3(C)CCCC3)CS[C@H]12)c1csc(N)n1` [CEFEPIME] displayed an MIC in data set [4] of 32 µg/mL (≈ 66.6 µM).
Take `C[C@@H](O)[C@H]1C(=O)N2C(C(=O)O)=C(S[C@@H]3CN[C@H](C(=O)N(C)C)C3)[C@H](C)[C@H]12` [MEROPENEM]: the MIC in data set [7] and in data set [8] was not below 32 µg/mL in each case.

In general, MIC refers to the lowest concentration found to suppress growth. Lower therefore signals a more susceptible organism. As a reminder, the MIC50 is the lowest concentration that inhibits either 50% of growth or 50% of the strains tested, depending on the study. High values mean weaker potency, low ones greater potency. For orientation: MIC90 means an inhibitory concentration at the 90% level, which refers to growth in some studies and to a panel of isolates in others. A low value points to higher susceptibility.
